Square brackets hold non-standard residues; d marks the D form. Ends that are not written are not given here. Peptide text beside a SMILES is read from it.
Experiments:
[1] = biological target: PDZ1-2 of PSD95 (Homo sapiens, UniProt P78352); assay: Fluorescence polarization competition binding assay of PDZ1-2 with probe 5-FAM-NA-1
[2] = Toxicological experiment: serum UREA and CREA after 5 days of i.v. dosing; format: in vivo, SD rats; details: male SD rats, 30 mg/kg i.v. once daily for 5 days, serum 2 h after dosing on day 5
Procedure: The compounds of Examples 1-8 were accurately weighed into suitable EP tubes, and the vehicle (saline) was added to formulate a solution of a concentration of 15 mg/mL. The solution was filtered using a 0.2 μm filter for future use.
A total of 18 male SD rats of 6-7 weeks of age were used for test. After the animal quarantine and acclimatization period, the animals were randomly divided into 6 groups according to their body weights measured before grouping, vehicle control group (saline) as well as example compounds groups, 3 animals/group. Using the above prepared solution, the animal was administered intravenously via the tail vein at a dosage of 30 mg/kg and a dosing volume of 2 mL/kg. The dosing volume for each animal was calculated according to the body weight. Administration was performed once daily for 5 consecutive days. After 2 h of administration on day 5, the animals were deeply anesthetized by intraperitoneal injection of sodium pentobarbital. The thoracic cavity was opened, and blood was collected from the abdominal aorta into blood collection tubes containing inert separation gel and coagulant. The serum was collected by centrifugation (4000 rpm, 10 min) after about 1 h of resting. The concentrations of UREA and CREA in the serum were detected using a biochemical analyzer. The percentage change of each example compound relative to the vehicle control group was calculated using the formula: %=(Concentration of example compound−Concentration of vehicle control group)/Concentration of vehicle control group.

[3] = Tissue distribution experiment of TAMRA-labeled compounds; format: in vivo; details: TAMRA-labeled compound, male Balb/c mice, 3 nmol/g tail vein injection, 45 min circulation, after perfusion
Procedure: The TAMRA-labeled example compounds were dissolved in saline to prepare a solution with a concentration of 600 μM/mL. A 100 μL of the above prepared solution was administered, at a dose of 3 nmol/g, to 6-week-old male Balb/c mice (18-22 g) via tail vein injection. After 45 min of circulation, the animals were deeply anesthetized by intraperitoneal injection of sodium pentobarbital. The thoracic cavity was opened, and the mice were subjected to cardiac perfusion using 0.01 M PBS (pH 7.4), and the brains, kidneys, and livers were collected at the end of perfusion. The harvested tissues were immediately placed on ice and stored at −80° C. […] The supernatant was transferred to a black 96-well plate with a clear bottom, and the TAMRA-peptide was quantified using a PHERAstar FSX plate reader (BMG LABTECH, Ortenberg, Germany). The excitation/emission wavelengths were set at 540/580 nm. The corresponding peptide concentration in the tissues was calculated using a standard curve (blank tissue mixed with TAMRA-peptide, concentration range of 0-1000 nM).

[4] = in vitro; details: human, plasma
Procedure: (§1) • Plasma: Human plasma is commercially available. • Reagents: DMSO (dimethyl sulfoxide), disodium hydrogen phosphate, sodium dihydrogen phosphate, methanol, formic acid, and propranolol (internal standard) are commercially available. • Instrument: AB SCIEX QTRAP 5500+.
(§2) 5 μL of stock solution (10 mM) was diluted with 495 μL of 0.05 M sodium phosphate buffer to 100 μM of dosing solution. The final concentration of tested drug for incubation was 10 μM.
(§3) A certain volume (e.g., 27 μL or 24 μL) of plasma was added into a 96-well plate. An appropriate volume of the internal standard working solution (e.g., 150 μL) was immediately added to precipitate. […] This was performed in duplicate.
(§4) Then, an appropriate amount of plasma (e.g., 27 μL or 24 μL) was added at the designed time points (e.g., 5 min, 15 min, 30 min, 60 min, and 120 min, etc.), and the parallel replicate wells were performed at each time point. […] The reaction was terminated by adding an appropriate amount of internal standard working solution (e.g., 150 μL) at the end of the time, and the mixture was mixed thoroughly.
(§5) The mixture was centrifuged at 4000 rpm for 15 min. A certain amount of the supernatant was taken, mixed with a certain amount of water, and then subjected to LC/MS/MS analysis. LC-MS detection conditions were as follows: • Chromatography column: YMC Triart C18, 50*3.0 mm, 2.1 μm. • Mobile phase: Gradient elution was performed using water (0.1% formic acid)-acetonitrile according to the table below.
(§6) The relative content of drug at each time point was calculated using the initial 0 point as 100%. The half-life of the drug was calculated by plotting “relative drug content” against “incubation time” using GraphPad Prism 5 software.

[5] = In vitro plasma stability experiment (compounds), without or with tPA; details: human, With tPA T1/2, human plasma, 37° C., initial concentration 10 μM, with rt-PA […]
Procedure: as §1, §2, §3, §4, §5, §6

PDZ1-2 of PSD95, sequence (P78352 61-249 limits assumed): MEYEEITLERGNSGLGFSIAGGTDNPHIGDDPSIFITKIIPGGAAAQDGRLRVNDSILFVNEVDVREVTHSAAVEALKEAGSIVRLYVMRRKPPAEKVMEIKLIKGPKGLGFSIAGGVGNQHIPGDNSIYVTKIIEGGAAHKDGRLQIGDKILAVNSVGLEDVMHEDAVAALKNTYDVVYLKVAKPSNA

| Compound | IC50 [1] | CREA, percentage change compared to vehicle control group [2] | UREA, percentage change compared to vehicle control group [2] | Mean tissue concentration, Brain [3] | half-life ([4]; With tPA T1/2) | half-life ([4]; Without tPA T1/2) | half-life at 10 μM [5] |
| --- | --- | --- | --- | --- | --- | --- | --- |
| CC[C@H](C)[C@H](NC(=O)[C@H](CO)NC(=O)[C@H](CO)NC(=O)[C@H](CC(C)C)NC(=O)[C@@H](CCCCN)NC(=O)[C@H](CCCNC(=N)N)NC(=O)[C@@H](CCCNC(=N)N)NC(=O)[C@H](CCC(N)=O)NC(=O)[C@@H](CCCNC(=N)N)NC(=O)[C@H](CCCNC(=N)N)NC(=O)[C@H](CCCCN)NC(=O)[C@H](CCCCN)NC(=O)[C@@H](CCCNC(=N)N)NC(=O)CNC(=O)[C@@H](N)Cc1ccc(O)cc1)C(=O)N[C@@H](CCC(=O)O)C(=O)N[C@@H](CO)C(=O)N[C@@H](CC(=O)O)C(=O)N[C@H](C(=O)O)C(C)C [Compound 1] (H-YG[dR]KKR[dR]Q[dR]R[dK]LSSIESDV-OH; N-terminus and C-terminus assumed) | 14.9 µM | 216.9% | 206.9% | 5.9220 nmol/g |  |  |  |
| CC[C@H](C)[C@H](NC(=O)[C@H](CO)NC(=O)[C@H](CO)NC(=O)[C@H](CC(C)C)NC(=O)[C@@H](CCCCN)NC(=O)[C@H](CCCNC(=N)N)NC(=O)[C@H](CCCNC(=N)N)NC(=O)[C@@H](CCCNC(=N)N)NC(=O)[C@H](CCC(=O)O)NC(=O)[C@@H](CCCNC(=N)N)NC(=O)[C@H](CCCNC(=N)N)NC(=O)[C@H](CCCCN)NC(=O)[C@H](CCCCN)NC(=O)[C@@H](CCCNC(=N)N)NC(=O)CNC(=O)[C@@H](N)Cc1ccc(O)cc1)C(=O)N[C@@H](CCC(=O)O)C(=O)N[C@@H](CO)C(=O)N[C@@H](CC(=O)O)C(=O)N[C@H](C(=O)O)C(C)C [Compound 15] (H-YG[dR]KKR[dR]E[dR]RR[dK]LSSIESDV-OH) | 11.3 µM | 90.8% | 88.6% | 4.4515 nmol/g | > 33.3 h | > 33.3 h |  |
| YGRKKRRQRRRKLSSIESDV [NA-1, reference compound] |  |  |  | 2.9115 nmol/g |  |  | 3.61 min |

Reference: patent US20260199492A1, “PSD-95 DOMAIN INHIBITOR, AND PREPARATION METHOD THEREFOR AND USE THEREOF” (SHENZHEN SALUBRIS PHARMACEUTICALS CO., LTD, priority 2023, published 2026)
